The data set in a line: Granisetron in human plasma after APF530 (clinical pharmacokinetics). The format is in vivo. Particulars: chemo-patients, human trials (FIGS. 3 and 4).

The structures appear in SMILES notation.

With `CN1C2CCCC1CC(NC(=O)c1nn(C)c3ccccc13)C2` (stereo not shown) [granisetron], the clearance of granisetron result is on record as “impaired clearance”.

The values above are taken from patent publication US20140107226A1, “METHODS FOR ENHANCING STABILITY OF POLYORTHOESTERS AND THEIR FORMULATIONS” (A.P. PHARMA, INC., priority 2008, published 2014).
